From patent publication US9273053B2, “Sulfur-containing heterocyclic derivative having Beta secretase inhibitory activity” (Shionogi & Co., Ltd., priority 2008, dated 2016)
pIC50: −log10 of the molar value.

Experiments:
[1] = biological target: CYP1A2 (Homo sapiens (Human), UniProt P05177); assay: CYP inhibition test (CYP1A2); format: in vitro ADME; settings: pooled human hepatic microsome, 7-ethoxyresorufin O-deethylation
Description: (§1) After the centrifugation at 3000 rpm for 15 minutes, resorufin (CYP1A2 metabolite) in the supernatant was quantified by a fluorescent multilabel counter and tributamide hydroxide (CYP2CP metabolite), mephenyloin 4′ hydroxide (CYP2C19 metabolite), […] (CYP2D6 metabolite), and terfenadine alcohol (CYP3A4 metabolite) were quantified by LC/MS/MS. Addition of only DMSO being a solvent dissolving a drug to a reaction system was adopted as a control (100%), remaining activity (%) was calculated at each concentration of a test drug added as the solution and […] was calculated by reverse presumption by a logistic model using a concentration and an inhibition rate.

[2] = biological target: CYP2C9 (Homo sapiens (Human), UniProt P11712); assay: CYP inhibition test (CYP2C9); format: in vitro ADME; settings: pooled human hepatic microsome, tolbutamide methyl-hydroxylation
Description: as §1

[3] = biological target: CYP2C19 (Homo sapiens (Human), UniProt P33261); assay: CYP inhibition test (CYP2C19); format: in vitro ADME; settings: pooled human hepatic microsome, mephenytoin 4′-hydroxylation
Description: as §1

[4] = biological target: CYP2D6 (Homo sapiens (Human), UniProt P10635); assay: CYP inhibition test (CYP2D6); format: in vitro ADME; settings: pooled human hepatic microsome, dextromethorphan O-demethylation
Description: as §1

[5] = biological target: CYP3A4 (Homo sapiens (Human), UniProt P08684); assay: CYP inhibition test (CYP3A4); format: in vitro ADME; settings: pooled human hepatic microsome, terfenedine hydroxylation
Description: as §1

[6] = biological target: Recombinant human BACE-1 (Homo sapiens (Human), UniProt P56817); assay: Assay of β-secretase-inhibiting activity; settings: Recombinant human BACE-1 7.4 nM, substrate peptide 18 nM, pH 5.0, 30° C. for 3 hours
[7] = biological target: human ether-a-go-go related gene (hERG) channel (Homo sapiens (Human), UniProt Q12809); assay: hERG test; format: cell-based; settings: HEK293 cells expressing hERG channel, whole cell patch clamp, concentration not given
Text: For the purpose of assessing risk of an electrocardiogram QT interval prolongation, effects on delayed rectifier K+ current (IKr), which plays an important role in the ventricular repolarization process, was studied using HEK293 cells expressing human ether-a-go-go related gene (hERG) channel.
After a cell was retained at a membrane potential of −80 mV by whole cell patch clamp method using an automated patch clamp system (PatchXpress 7000A, Axon Instruments Inc.), IKr induced by depolarization pulse stimulation at +50 mV for 2 seconds and, further, repolarization pulse stimulation at −50 mV for 2 seconds was recorded. […] From the recording IKr, an absolute value of the tail peak current was measured based on the current value at the resting membrane potential using an analysis software (DataXpress ver. 1, Molecular Devices Corporation). Further, the % inhibition relative to the tail peak current before application of the test substance was calculated, and compared with the vehicle-applied group (0.1% dimethyl sulfoxide solution) to assess influence of the test substance on IKr.

Chain of human ether-a-go-go related gene (hERG) channel (Q12809 whole entry): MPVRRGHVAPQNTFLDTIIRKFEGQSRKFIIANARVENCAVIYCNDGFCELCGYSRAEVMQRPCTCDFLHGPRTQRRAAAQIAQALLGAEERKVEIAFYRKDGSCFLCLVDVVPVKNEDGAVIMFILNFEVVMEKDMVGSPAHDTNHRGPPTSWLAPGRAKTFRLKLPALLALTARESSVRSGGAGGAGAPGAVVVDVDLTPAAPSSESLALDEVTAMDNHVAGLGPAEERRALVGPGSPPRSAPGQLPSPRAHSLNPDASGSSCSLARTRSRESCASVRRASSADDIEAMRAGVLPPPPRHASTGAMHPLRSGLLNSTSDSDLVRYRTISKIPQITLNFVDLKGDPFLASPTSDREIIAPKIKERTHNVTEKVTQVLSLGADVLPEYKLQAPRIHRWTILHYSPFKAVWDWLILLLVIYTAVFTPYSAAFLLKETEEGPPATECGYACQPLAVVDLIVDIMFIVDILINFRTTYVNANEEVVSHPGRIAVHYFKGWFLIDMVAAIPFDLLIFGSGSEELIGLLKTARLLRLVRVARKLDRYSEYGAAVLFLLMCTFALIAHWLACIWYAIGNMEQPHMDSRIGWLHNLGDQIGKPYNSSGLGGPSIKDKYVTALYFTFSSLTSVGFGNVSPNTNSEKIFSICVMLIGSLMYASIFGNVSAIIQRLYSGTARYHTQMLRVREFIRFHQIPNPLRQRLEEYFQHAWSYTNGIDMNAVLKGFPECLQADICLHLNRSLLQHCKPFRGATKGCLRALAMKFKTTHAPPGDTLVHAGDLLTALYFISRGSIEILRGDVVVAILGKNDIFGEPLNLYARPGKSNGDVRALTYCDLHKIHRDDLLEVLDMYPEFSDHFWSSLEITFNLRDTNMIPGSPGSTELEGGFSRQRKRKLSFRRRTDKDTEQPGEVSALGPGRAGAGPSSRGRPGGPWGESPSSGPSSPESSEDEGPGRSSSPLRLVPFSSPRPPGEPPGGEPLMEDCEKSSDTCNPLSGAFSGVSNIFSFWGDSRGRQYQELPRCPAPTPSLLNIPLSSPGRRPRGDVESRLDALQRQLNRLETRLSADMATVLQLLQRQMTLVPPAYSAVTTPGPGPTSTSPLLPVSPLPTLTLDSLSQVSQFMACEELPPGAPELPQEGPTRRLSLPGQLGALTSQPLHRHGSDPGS
Chain of CYP2D6 (P10635 whole entry): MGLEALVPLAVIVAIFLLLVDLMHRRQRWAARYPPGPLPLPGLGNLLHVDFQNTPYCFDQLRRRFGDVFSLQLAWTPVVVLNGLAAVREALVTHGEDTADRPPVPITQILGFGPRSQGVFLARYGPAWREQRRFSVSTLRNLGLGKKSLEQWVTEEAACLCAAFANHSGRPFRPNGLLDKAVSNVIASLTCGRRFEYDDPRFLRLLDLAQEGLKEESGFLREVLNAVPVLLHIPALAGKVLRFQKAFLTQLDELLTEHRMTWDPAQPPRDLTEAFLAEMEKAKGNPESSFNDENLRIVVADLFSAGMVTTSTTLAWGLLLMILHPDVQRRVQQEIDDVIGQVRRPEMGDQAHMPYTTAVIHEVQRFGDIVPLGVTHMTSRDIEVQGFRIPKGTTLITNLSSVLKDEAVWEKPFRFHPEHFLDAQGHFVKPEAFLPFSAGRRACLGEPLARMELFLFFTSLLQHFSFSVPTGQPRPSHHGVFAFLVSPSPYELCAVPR
Chain of Recombinant human BACE-1 (P56817 46-501): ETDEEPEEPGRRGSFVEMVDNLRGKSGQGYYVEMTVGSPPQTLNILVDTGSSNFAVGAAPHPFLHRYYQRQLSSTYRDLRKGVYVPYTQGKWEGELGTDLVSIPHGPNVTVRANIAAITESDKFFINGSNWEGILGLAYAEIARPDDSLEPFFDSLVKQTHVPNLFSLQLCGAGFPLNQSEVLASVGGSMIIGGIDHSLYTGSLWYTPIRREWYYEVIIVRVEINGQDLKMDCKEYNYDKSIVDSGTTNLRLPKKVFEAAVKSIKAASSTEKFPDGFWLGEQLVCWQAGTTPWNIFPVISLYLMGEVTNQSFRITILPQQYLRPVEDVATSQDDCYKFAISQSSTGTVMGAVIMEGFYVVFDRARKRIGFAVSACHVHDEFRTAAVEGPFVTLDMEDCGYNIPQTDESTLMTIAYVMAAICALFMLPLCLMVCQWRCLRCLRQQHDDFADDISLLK
Chain of CYP3A4 (P08684 whole entry): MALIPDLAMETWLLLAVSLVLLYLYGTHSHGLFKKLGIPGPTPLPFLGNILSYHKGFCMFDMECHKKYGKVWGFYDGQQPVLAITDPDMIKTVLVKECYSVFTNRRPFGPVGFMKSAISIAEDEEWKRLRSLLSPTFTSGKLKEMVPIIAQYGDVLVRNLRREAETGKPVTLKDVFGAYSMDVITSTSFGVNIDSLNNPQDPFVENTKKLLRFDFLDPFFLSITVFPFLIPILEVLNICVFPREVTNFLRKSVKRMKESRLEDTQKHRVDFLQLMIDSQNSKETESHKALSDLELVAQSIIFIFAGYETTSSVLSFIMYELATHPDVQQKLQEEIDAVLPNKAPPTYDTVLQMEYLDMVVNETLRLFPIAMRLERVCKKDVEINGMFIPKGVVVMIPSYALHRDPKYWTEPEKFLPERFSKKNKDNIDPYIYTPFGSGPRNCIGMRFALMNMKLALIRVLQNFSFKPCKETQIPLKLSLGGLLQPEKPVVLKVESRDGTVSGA
Chain of CYP1A2 (P05177 whole entry): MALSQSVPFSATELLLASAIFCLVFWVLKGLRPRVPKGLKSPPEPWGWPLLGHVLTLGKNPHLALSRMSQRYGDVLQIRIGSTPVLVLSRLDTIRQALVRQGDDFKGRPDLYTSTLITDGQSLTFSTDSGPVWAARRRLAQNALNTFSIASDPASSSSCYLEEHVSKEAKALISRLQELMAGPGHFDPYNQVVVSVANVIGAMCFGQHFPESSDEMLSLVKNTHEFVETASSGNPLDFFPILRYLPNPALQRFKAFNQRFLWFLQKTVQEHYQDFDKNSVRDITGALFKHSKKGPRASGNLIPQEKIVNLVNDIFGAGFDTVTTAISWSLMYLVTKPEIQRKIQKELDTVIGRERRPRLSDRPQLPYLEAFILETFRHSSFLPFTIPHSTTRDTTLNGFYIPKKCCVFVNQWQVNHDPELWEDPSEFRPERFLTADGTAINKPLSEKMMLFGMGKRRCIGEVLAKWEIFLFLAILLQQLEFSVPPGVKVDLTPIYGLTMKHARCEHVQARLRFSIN
Chain of CYP2C19 (P33261 whole entry): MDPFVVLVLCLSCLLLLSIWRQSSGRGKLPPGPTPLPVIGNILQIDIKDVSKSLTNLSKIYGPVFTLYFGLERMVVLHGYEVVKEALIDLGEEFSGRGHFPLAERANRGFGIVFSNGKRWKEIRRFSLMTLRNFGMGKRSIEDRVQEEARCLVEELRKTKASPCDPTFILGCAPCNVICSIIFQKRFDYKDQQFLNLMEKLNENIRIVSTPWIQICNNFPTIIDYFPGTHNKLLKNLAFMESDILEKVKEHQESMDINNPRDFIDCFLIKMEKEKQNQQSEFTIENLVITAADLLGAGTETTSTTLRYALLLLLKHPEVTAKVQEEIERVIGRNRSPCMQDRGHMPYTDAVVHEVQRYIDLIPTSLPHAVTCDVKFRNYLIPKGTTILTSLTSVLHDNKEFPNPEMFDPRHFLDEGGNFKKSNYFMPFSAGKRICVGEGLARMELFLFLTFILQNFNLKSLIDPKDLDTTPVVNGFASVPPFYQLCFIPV
Chain of CYP2C9 (P11712 whole entry): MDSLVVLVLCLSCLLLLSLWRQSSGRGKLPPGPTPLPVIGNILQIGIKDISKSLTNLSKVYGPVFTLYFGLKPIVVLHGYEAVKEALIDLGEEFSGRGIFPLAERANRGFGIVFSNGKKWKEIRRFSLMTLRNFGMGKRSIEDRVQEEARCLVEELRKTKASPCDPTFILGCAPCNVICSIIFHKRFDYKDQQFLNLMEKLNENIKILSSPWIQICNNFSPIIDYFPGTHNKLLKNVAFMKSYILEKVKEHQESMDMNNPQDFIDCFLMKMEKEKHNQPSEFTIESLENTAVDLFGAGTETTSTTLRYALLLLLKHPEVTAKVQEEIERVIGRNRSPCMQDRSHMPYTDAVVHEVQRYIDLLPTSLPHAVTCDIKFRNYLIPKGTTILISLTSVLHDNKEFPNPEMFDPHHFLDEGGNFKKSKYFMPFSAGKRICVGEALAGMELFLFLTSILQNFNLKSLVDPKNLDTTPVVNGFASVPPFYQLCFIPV

Row | pIC50 [1] | pIC50 [2] | pIC50 [3] | pIC50 [4] | pIC50 [5] | pIC50 [6] | SMILES | % inhibition of IKr tail peak current [7] [%]
1 | < 4.70 | < 4.70 | < 4.70 | < 4.70 | < 4.70 | 7.02 | Cc1cc(C(=O)Nc2ccc(F)c([C@]3(C)C=CSC(N)=N3)c2)n(C)c1 [Compound 35] | 
2 |  |  |  |  |  |  | CNC(=O)c1ccc(-c2ccc(F)c([C@]3(C)C=CSC(N)=N3)c2)cn1 [Compound 92] | 7.9
3 |  |  |  |  |  |  | C=C1C[C@@](C)(c2cc(NC(=O)c3cnc(OC)cn3)cnc2C)N=C(N)S1 [Compound 102] | 2.3
